# According to patent publication US20170281727A1, “THERAPEUTIC OR PROPHYLACTIC AGENT FOR ITCHING SKIN DISEASES” (Toray Industries, Inc., priority 2014, published 2017):
# “Also recorded” adds a separate entry of the source.
# Experiments:
# Type in all cases: cell-based, human
# Sema3A [1] = experiment: mRNA expression analysis of Sema3A by real-time PCR in NHEKs; conditions: LL-37 20 μg/ml, 48 hours after stimulation, vs control without LL-37
# Procedure: (§1) Normal human epidermal keratinocytes (NHEKs) were cultured according to a protocol provided by Lonza. NHEKs were cultured in a 12-well tissue culture plate and, in the growth phase (80% confluence), LL-37 (20 μg/ml) was added alone, or LL-37 (20 μg/ml) and the peptide SLIGRL (SEQ ID NO:2, 100 μM) were added, to the cells. The peptide SLIGRL is a peptide frequently used as a PAR2 agonist, and it is known that activation of PAR2 induces promotion of expression of TSLP in keratinocytes (Wilson et al, Cell, 2013: 155, 285-295). Total RNA was extracted 48 hours after the addition of LL-37, and mRNA expression analysis was carried out by real-time PCR. The culture supernatant was collected, and subjected to analysis of the protein expression level by ELISA. • (3) Analysis of Expression of mRNA of Each Gene
# (§2) The transcription level of each gene was analyzed by quantitative real-time PCR. […] According to the manufacturer's instructions, quantitative real-time PCR was carried out using an Applied Biosystems 7900HT Fast Real-time PCR system (Applied Biosystems) with SYBR Premix Ex Taq (Takara). […] The amount of each mRNA was normalized against the amount of mRNA of RPS18, and finally expressed as the ratio to the mRNA in an untreated control.
# NGF = experiment: mRNA expression analysis of NGF by real-time PCR in NHEKs; conditions: LL-37 20 μg/ml, 48 hours after stimulation, vs control without LL-37
# Procedure: as §1, §2
# KAL1 = experiment: mRNA expression analysis of KAL1 by real-time PCR in NHEKs; conditions: LL-37 20 μg/ml, 48 hours after stimulation, vs control without LL-37
# Procedure: as §1, §2
# Artemin = experiment: mRNA expression analysis of Artemin by real-time PCR in NHEKs; conditions: LL-37 20 μg/ml, 48 hours after stimulation, vs control without LL-37
# Procedure: as §1, §2
# hBD-1 = experiment: mRNA expression analysis of hBD-1 by real-time PCR in NHEKs; conditions: LL-37 20 μg/ml, 48 hours after stimulation, vs control without LL-37
# Procedure: as §1, §2
# hBD-2 = experiment: mRNA expression analysis of hBD-2 by real-time PCR in NHEKs; conditions: LL-37 20 μg/ml, 48 hours after stimulation, vs control without LL-37
# Procedure: as §1, §2
# TSLP = experiment: mRNA expression analysis of TSLP by real-time PCR in NHEKs
# Procedure: as §1, §2
# Sema3A [2] = experiment: Sema3A protein in NHEK culture supernatant by ELISA; conditions: NHEKs, LL-37 20 μg/ml, 48 hours after stimulation, vs control without LL-37
# Procedure: as §1
# The expression level of each protein was analyzed by ELISA. The amount of Sema3A in the culture supernatant was measured using an Enzyme-linked Immunosorbent Assay Kit (USCN Life Science) according to the manufacturer's instructions.
substance,measurement,setting,value
"LL-37: human cathelicidin antimicrobial peptide, LLGDFFRKSKEKIGKEFKRIVQRIKDFLRNLVPRTES, SEQ ID NO:1 (listed as Homo sapiens)",mRNA expression of Sema3A,Sema3A [1],promoted; also recorded: increases
same,mRNA expression of NGF,NGF,suppressed; also recorded: decreases
same,mRNA expression of KAL1,KAL1,promoted; also recorded: increases
same,mRNA expression of Artemin,Artemin,suppressed; also recorded: decreases
same,mRNA expression of hBD-1,hBD-1,Promotion; also recorded: increases
same,mRNA expression of hBD-2,hBD-2,Promotion; also recorded: increases
same,mRNA expression of TSLP,"TSLP; LL-37 20 μg/ml alone, 48 hours after stimulation, vs control without LL-37",Suppression; also recorded: decreases
same,mRNA expression of TSLP induced by SLIGRL,"TSLP; LL-37 20 μg/ml plus SLIGRL 100 μM (PAR2 agonist), 48 hours",suppression; also recorded: decreased
same,amount of Sema3A protein in the culture supernatant,Sema3A [2],increase
